Molecules are shown by their SMILES. Values after ≈ are worked out from the molar mass of the structure shown.

This is an account of results in ChEMBL document CHEMBL1158032, “Manaarenolides A-I, diterpenoids from the soft coral Sinularia manaarensis” (J Nat Prod, 2006).

Series [1] is described as follows: Cytotoxicity against human Hepa59T/VGH cells by MTT assay. It counts as functional. Conditions: HEPA 59T/VGH, read-out: ED50 (the source's name).
Another series has as its system KB. Description: Cytotoxicity against human KB cells by MTT assay. It counts as functional. Conditions: read-out: ED50 (the source's name). Background: Formazan colour is commonly taken as a measure of viable cells.
Another series relates to HeLa. Description: Cytotoxicity against human HeLa cells by MTT assay. In kind it is functional. Conditions: read-out: ED50 (the source's name).
Series [2] is described as follows: Cytotoxicity against human Med cells by MTT assay. It counts as cell-based. Conditions: read-out: ED50 (the source's name).

Take `C=C1C(=O)O[C@@H]2C[C@H]1C/C=C(\C)[C@@H](O)CC/C(C)=C/CC[C@]2(C)O` [MANAARENOLIDE G]: the EC50 was found to be 7.2 µg/mL (≈ 21.5 µM) in series [1], 8.7 µg/mL (≈ 26 µM) with KB and 10.9 µg/mL (≈ 32.6 µM) with HeLa. Further, the CC50 in series [2] was 13.4 µg/mL (≈ 40.1 µM).

On to `C=C1C(=O)O[C@@H]2C[C@H]1C/C=C(/C)[C@@H](O)CC/C(C)=C/CC[C@]2(C)O` [MANAARENOLIDE H], for which the figures for the EC50 (in series [1]; in the series on KB; with HeLa) were 7.4 µg/mL (≈ 22.1 µM), 7.6 µg/mL (≈ 22.7 µM) and 9.3 µg/mL (≈ 27.8 µM), respectively. Besides, the CC50 in series [2] was 5.8 µg/mL (≈ 17.3 µM).
